# In ChEMBL document CHEMBL1148357, “Novel dicationic imidazo[1,2-a]pyridines and 5,6,7,8-tetrahydro-imidazo[1,2-a]pyridines as antiprotozoal agents” (J Med Chem, 2004):
# pIC50: −log10 of the molar value.
# Legend:
# Plasmodium falciparum = test: In vitro inhibitory activity for Plasmodium falciparum; type: functional, organism-based
# [1] = test system: Trypanosoma brucei rhodesiense; test: In vitro inhibitory activity against Trypanosoma brucei rhodesiense; type: functional, organism-based
# Mus musculus [2] = test: Number of mice (out of 4) cured from Trypanosoma brucei rhodesiense infection which are parasite free for 60 days was determined at i.p. dose of 10 mg/kg; type: functional; details: route intraperitoneal
# Mus musculus [3] = test: In vivo average survival days of mice infected by Trypanosoma brucei rhodesiense was determined for a period of 60 days at i.p. dose of 10 mg/kg; type: functional; details: route intraperitoneal
# Nucleic Acid = test: In vitro binding affinity towards Poly (dA-dT)2; type: nucleic-acid assay
# Mus musculus [4] = test: In vivo average survival days of mice infected by Trypanosoma brucei rhodesiense was determined for a period of 60 days at i.p. dose of 5 mg/kg; type: functional; details: route intraperitoneal
# Mus musculus [5] = test: Number of mice (out of 4) cured from Trypanosoma brucei rhodesiense infection which are parasite free for 60 days was determined at i.p. dose of 20 mg/kg; type: functional; details: route intraperitoneal
# Mus musculus [6] = test: Number of mice (out of 4) cured from Trypanosoma brucei rhodesiense infection which are parasite free for 60 days was determined at i.p. dose of 5 mg/kg; type: functional; details: route intraperitoneal
# Mus musculus [7] = test: In vivo average survival days of mice infected by Trypanosoma brucei rhodesiense was determined for a period of 60 days at i.p. dose of 20 mg/kg; type: functional; details: route intraperitoneal
# Mus musculus [8] = test: In vivo average survival days of mice infected by Trypanosoma brucei rhodesiense was determined for a period of 60 days at p.o. dose of 100 mg/kg; type: functional; details: route oral
# Mus musculus [9] = test: Number of mice (out of 4) cured from Trypanosoma brucei rhodesiense infection which are parasite free for 60 days was determined at p.o. dose of 100 mg/kg; type: functional; details: route oral
# Mus musculus [10] = test: Number of mice (out of 4) cured from Trypanosoma brucei rhodesiense infection which are parasite free for 60 days was determined at p.o. dose of 50 mg/kg; type: functional; details: route oral
# Mus musculus [11] = test: In vivo average survival days of mice infected by Trypanosoma brucei rhodesiense was determined for a period of 60 days at p.o. dose of 50 mg/kg; type: functional; details: route oral
# Mus musculus [12] = test: In vivo average survival days of mice infected by Trypanosoma brucei rhodesiense was determined for a period of 60 days at p.o. dose of 75 mg/kg; type: functional; details: route oral
# Mus musculus [13] = test: Number of mice (out of 4) cured from Trypanosoma brucei rhodesiense infection which are parasite free for 60 days was determined at p.o. dose of 75 mg/kg; type: functional; details: route oral
Structure (SMILES),pIC50 (Plasmodium falciparum),pIC50 [1],ΔTm (Nucleic Acid),No. of cures (Mus musculus [5]),Survival (Mus musculus [7]),other results
N=C(N)c1ccc(-c2ccc(-c3cn4c(n3)CCC(C(=N)N)C4)cc2)cc1 (stereo not drawn),7.85,6.94,21.3,–,–,No. of cures (Mus musculus [2]): 3; Survival (Mus musculus [3]): >51.5 days
N=C(N)c1ccc(-c2ccc(-c3cn4c(n3)CCC(C(=N)N)C4)o2)cc1 (stereo not drawn),5.92,7.28,15.6,4,>60 days,Survival (Mus musculus [4]): >51 days; No. of cures (Mus musculus [6]): 2
CONC(=N)c1ccc(-c2ccc(-c3cn4cc(C(=N)NOC)ccc4n3)o2)cc1,5.55,5.52,–,–,–,Survival (Mus musculus [8]): >39.5 days; No. of cures (Mus musculus [9]): 2
Cc1cc(C(=N)N)cn2cc(-c3ccc(-c4ccc(C(=N)N)cc4)o3)nc12,7.06,8.22,> 27,4,>60 days,–
N=C(N)c1ccc(-c2ccc(-c3cn4cc(C(=N)N)ccc4n3)cc2)cc1,7.37,9.00,24.2,4,>60 days,–
N=C(NO)c1ccc(-c2ccc(-c3cn4cc(/C(N)=N/O)ccc4n3)o2)cc1,5.80,5.66,–,–,–,No. of cures (Mus musculus [10]): 1; Survival (Mus musculus [11]): >19.5 days
N=C(NO)c1ccc(-c2ccc(-c3cn4cc(/C(N)=N/O)ccc4n3)cc2)cc1,6.28,–,–,–,–,Survival (Mus musculus [12]): 28 days; No. of cures (Mus musculus [13]): 0
N=C(N)c1ccc(-c2ccc(-c3ccc(C(=N)N)cc3)o2)cc1 [FURAMIDINE],–,–,–,0,–,–
N=C(N)c1ccc(OCCCCCOc2ccc(C(=N)N)cc2)cc1 [PENTAMIDINE],–,–,–,0,–,–
N=C(N)c1ccc(-c2cccc(-c3cn4c(n3)CCC(C(=N)N)C4)c2)cc1 (stereo not drawn),7.07,6.65,19.1,–,–,–
CONC(=N)c1ccc(-c2ccc(-c3ccc(C(=N)NOC)cc3)o2)cc1 [PAFURAMIDINE],7.81,8.35,25,–,–,Survival (Mus musculus [8]): >60 days; No. of cures (Mus musculus [9]): 4
CONC(=N)c1ccc(-c2ccc(-c3cn4cc(C(=N)NOC)ccc4n3)cc2)cc1,6.40,5.28,0.3,–,–,Survival (Mus musculus [12]): 20 days; No. of cures (Mus musculus [13]): 0
N=C(N)c1ccc(-c2cccc(-c3cn4cc(C(=N)N)ccc4n3)c2)cc1,6.97,7.66,> 27,4,>60 days,–
N=C(N)c1ccc(-c2ccc(-c3cn4cc(C(=N)N)ccc4n3)o2)cc1,7.85,7.20,26.2,4,>60 days,–
Cc1cc(C(=N)N)cn2cc(-c3cccc(-c4ccc(C(=N)N)cc4)c3)nc12,7.07,7.31,> 27,3,>50 days,–
